Test results as given in patent US20100204119A1, “4-AMINO-5-OXO-7,8-DIHYDROPYRIMIDO[5,4-F][1,4]OXAZEPIN-6(5H)-YL PHENYL DERIVATIVES” (Pfizer Inc, priority 2009, published 2010).

Target: T1, Human full-length diacylglycerol:acylCoA acyltransferase 1 (DGAT-1) (Homo sapiens, UniProt O75907)
T1 sequence (O75907 1-488): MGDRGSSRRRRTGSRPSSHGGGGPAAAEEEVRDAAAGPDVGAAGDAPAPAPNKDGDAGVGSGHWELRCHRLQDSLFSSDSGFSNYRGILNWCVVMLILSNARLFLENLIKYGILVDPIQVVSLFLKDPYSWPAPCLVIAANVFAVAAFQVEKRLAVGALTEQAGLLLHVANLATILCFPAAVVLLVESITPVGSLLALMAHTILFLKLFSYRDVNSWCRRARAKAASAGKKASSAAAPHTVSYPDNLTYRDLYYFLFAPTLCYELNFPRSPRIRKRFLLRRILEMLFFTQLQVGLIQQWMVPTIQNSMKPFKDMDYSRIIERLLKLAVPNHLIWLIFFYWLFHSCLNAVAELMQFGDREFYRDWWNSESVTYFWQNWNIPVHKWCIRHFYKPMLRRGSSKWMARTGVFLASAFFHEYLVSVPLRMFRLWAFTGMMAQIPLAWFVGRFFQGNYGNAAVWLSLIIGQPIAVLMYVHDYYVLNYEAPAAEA
Assay: In vitro assay for inhibition of DGAT-1 activity (DGAT 1 Reduced Microsome Multidose Assay)
Conditions: Trial 1 Human IC50, Trial 1: as Trial 4 except microsomes at 25 μg/mL instead of 5 μg/mL; average where n > 1
Description: Human full-length diacylglycerol:acylCoA acyltransferase 1 (DGAT-1) was expressed in Sf9 insect cells which are then lysed and a crude membrane fraction (105,000×g pellet) was prepared.
Inhibitors in DMSO were pre-incubated with membranes before initiating the DGAT-1 reaction by the addition of decanoylCoA. […] The inhibitors were present at a range of eight concentrations to generate an apparent IC50 for each compound. […] Specifically, the eight concentrations used were 3 μM, 1 μM, 300 nM, 100 nM, 30 nM, 10 nM, 3 nM and 1 nM.
The reactions were allowed to proceed for 1.5 hours at room temperature and then terminated by the addition of 20 μl of EDTA (40 mM). Reaction mixture is then mixed by trituration with 30 μl of Microscint™-E (Perkin Elmer). […] Four separate trials were conducted. The method of analysis of Trial 1 was the same as Trial 4 (described above) except microsomes were utilized at 25 μg/mL instead of 5 μg/mL. The method of analysis of Trial 2 was the same as Trial 4 (described above) except eleven (11) concentrations of inhibitor were employed instead of eight (8). The method of analysis of Trial 3 was the same as Trial 2 except the compounds were serially diluted in a different laboratory.
Where this DGAT-1 inhibition assay was performed on a compound more than once, an average is provided for that compound.

IC50 [µM]	Structure (SMILES)
0.067	Cc1cc(CN(C)C(=O)C[C@H]2CC[C@H](c3ccc(N4CCOc5ncnc(N)c5C4=O)cc3)CC2)ccn1 [Example 6AZ]
0.0421	CC(F)(F)CN(CCO)C(=O)C[C@H]1CC[C@H](c2ccc(N3CCOc4ncnc(N)c4C3=O)cc2)CC1 [Example 6AD]
0.0732	Nc1ncnc2c1C(=O)N(c1ccc([C@H]3CC[C@H](CC(=O)N4CCC4)CC3)cc1)CCO2 [Example 6AW]
0.24	Cc1nnc2n1CCN(C(=O)C[C@H]1CC[C@H](c3ccc(N4CCOc5ncnc(N)c5C4=O)cc3)CC1)C2 [Example 6Q]
0.0713	CC1(CO)CCCN(C(=O)C[C@H]2CC[C@H](c3ccc(N4CCOc5ncnc(N)c5C4=O)cc3)CC2)C1 (some centres unmarked) [Example 6AN]
0.0175	CCC1(CO)CCN(C(=O)C[C@H]2CC[C@H](c3ccc(N4CCOc5ncnc(N)c5C4=O)cc3)CC2)C1 (some centres unmarked) [Example 6R]
0.0777	CN(CCc1ccccn1)C(=O)C[C@H]1CC[C@H](c2ccc(N3CCOc4ncnc(N)c4C3=O)cc2)CC1 [Example 6W]
0.105	Nc1ncnc2c1C(=O)N(c1ccc([C@H]3CC[C@H](CC(=O)N4CCNC(=O)CC4)CC3)cc1)CCO2 [Example 6AL]
0.125	Nc1ncnc2c1C(=O)N(c1ccc([C@H]3CC[C@H](CC(=O)N4CCC(CO)C4)CC3)cc1)CCO2 (some centres unmarked) [Example 6T]
2.75	CC(C)(C(N)=O)c1ccc(N2CCOc3ncnc(N)c3C2=O)cc1 [Example 1D, 2-[4-(4-amino-5-oxo-7,8-dihydropyrimido[5,4-f][1,4]oxazepin-6(5H)-yl)phenyl]-2-methylpropanamide]
0.0828	CN(CC1COCCO1)C(=O)C[C@H]1CC[C@H](c2ccc(N3CCOc4ncnc(N)c4C3=O)cc2)CC1 (some centres unmarked) [Example 6AF]
0.107	CC1(O)CCN(C(=O)C[C@H]2CC[C@H](c3ccc(N4CCOc5ncnc(N)c5C4=O)cc3)CC2)CC1 [Example 6AP]

Same assay, conditions: Trial 2 Human IC50, Trial 2: as Trial 4 except eleven concentrations of inhibitor instead of eight; average where n > 1

IC50 [µM]	Structure (SMILES)
0.0551	CC(C)(C)OC(=O)N1CCC(c2ccc(N3CCOc4ncnc(N)c4C3=O)cc2)CC1 [Example 7B]
0.205	CC(C)[C@H](O)C(=O)N1CCC(c2ccc(N3CCOc4ncnc(N)c4C3=O)cc2)CC1 [Example 7U]
0.138	Nc1ncnc2c1C(=O)N(c1ccc(C3CCN(C(=O)CC4CCOCC4)CC3)cc1)CCO2 [Example 7O]

Same assay, conditions: Trial 3 Human IC50, Trial 3: as Trial 2 except compounds serially diluted in a different laboratory; average where n > 1

IC50 [µM]	Structure (SMILES)
0.03	CC(C)(C)OC(=O)N1CCC(c2ccc(N3CCOc4ncnc(N)c4C3=O)cc2)CC1 [Example 7B]
0.297	CC(C)[C@H](O)C(=O)N1CCC(c2ccc(N3CCOc4ncnc(N)c4C3=O)cc2)CC1 [Example 7U]
0.374	Nc1ncnc2c1C(=O)N(c1ccc(C3CCN(C(=O)CC4CCOCC4)CC3)cc1)CCO2 [Example 7O]

Same assay, conditions: Trial 4 Human IC50, Trial 4: eight concentrations of inhibitor, microsomes 5 μg/mL; average where n > 1

IC50 [µM]	Structure (SMILES)
0.0461	C[C@@H]1CN(c2ccc(C(C)(C)F)cc2)C(=O)c2c(N)ncnc2O1 [Example 1L, (8R)-4-amino-6-[4-(1-fluoro-1-methylethyl)phenyl]-8-methyl-7,8-dihydropyrimido[5,4-f][1,4]oxazepin-5(6H)-one]
0.104	C[C@@H]1CN(c2ccc(CC(C)(C)O)cc2)C(=O)c2c(N)ncnc2O1 [Example 1AN]
0.313	C[C@@H]1CN(c2ccc(CC(N)=O)cc2)C(=O)c2c(N)ncnc2O1 [Example 1AM, (8R)-2-(4-(4-amino-8-methyl-5-oxo-7,8-dihydropyrimido[5,4-f][1,4]oxazepin-6(5H)-yl)phenyl)acetamide]
0.0824	C[C@@H]1CN(c2ccc(C3(C(N)=O)CCCCC3)cc2)C(=O)c2c(N)ncnc2O1 [Example 1AE, 1-{4-[(8R)-4-amino-8-methyl-5-oxo-7,8-dihydropyrimido[5,4-f][1,4]oxazepin-6(5H)-yl]phenyl}cyclohexanecarboxamide]
0.0226	C[C@@H]1CN(c2ccc([C@H](O)C(C)(C)C)cc2)C(=O)c2c(N)ncnc2O1 [Example 1AD]
0.02	C[C@@H]1CN(c2ccc(C(C)(C)C(=O)O)cc2)C(=O)c2c(N)ncnc2O1 [Example 1AO, 2-{4-[(8R)-4-amino-8-methyl-5-oxo-7,8-dihydropyrimido[5,4-f][1,4]oxazepin-6(5H)-yl]phenyl}-2-methylpropanoic acid]
0.031	C[C@@H]1CN(c2ccc(C(C)(C)CO)cc2)C(=O)c2c(N)ncnc2O1 [Example 1AQ]
< 0.0107	C[C@@H]1CN(c2ccc3c(c2)CCC3)C(=O)c2c(N)ncnc2O1 [Example 1S]
